Assay results as given in ChEMBL document CHEMBL1132060, “Octa- and nonaprenylhydroquinone sulfates, inhibitors of alpha1,3-fucosyltransferase VII, from an Australian marine sponge Sarcotragus sp” (Bioorg Med Chem Lett, 1999).

Test: Inhibitory activity against fuc-TVII

| IC50 [µg/mL] | Compound |
| --- | --- |
| 2.4 | CC(C)=CCC/C(C)=C/CC/C(C)=C/CC/C(C)=C/CC/C(C)=C/CC/C(C)=C/CC/C(C)=C/CC/C(C)=C/CC/C(C)=C/Cc1cc(O)ccc1OS(=O)(=O)[O-].[Na+] |
| 3.9 | CC(C)=CCC/C(C)=C/CC/C(C)=C/CC/C(C)=C/CC/C(C)=C/CC/C(C)=C/CC/C(C)=C/CC/C(C)=C/Cc1cc(O)ccc1OS(=O)(=O)[O-].[Na+] |
